Test in data set [1]: not given
The source holds these as a separate data set.

Each structure is given as a SMILES string.

`C[C@@H]1CCCC[C@H]1O` (relative stereo) [trans-2-methylcyclohexanol]: the flash point was 59 °C.

Consider `CC(Cl)Cl` [1,1-dichloroethane], for which the flash point is -10 °C. Regarding `CCOC(CC)OCC` [1,1-diethoxypropane], the flash point turned out to be 13 °C. Consider `COC(C)OC` [1,1-dimethoxyethane], for which the flash point was -17 °C.

Consider `CC1(C)CCCCC1` [1,1-dimethylcyclohexane], for which the flash point turned out to be 7 °C. With `Cc1ccc(C)c(C)c1C` [1,2,3,4-tetramethylbenzene], the flash point was 68 °C.

Consider `Cc1ccc(C)c(C)c1` [1,2,4-trimethylbenzene], for which the flash point was 46 °C. On the same count and under the same terms, the same measure for `CCC(O)CO` (configuration not stated) [1,2-butanediol]: 93 °C; for `Clc1ccccc1Cl` [1,2-dichlorobenzene]: 68 °C; for `CCC(Cl)CCl` (configuration not stated) [1,2-dichlorobutane]: 27 °C. For the compound `ClCCCl` [1,2-dichloroethane], the flash point worked out at 13 °C. Same read-out and setting: the same measure for `CC(Cl)CCl` (configuration not stated) [1,2-dichloropropane]: 13 °C; for `Cc1ccc(F)cc1C` [1,2-dimethyl-4-fluorobenzene]: 40 °C; for `OCCO` [1,2-ethanediol]: 108 °C.

For `CCCCC(O)CO` (configuration not stated) [1,2-hexanediol], the flash point worked out at 122 °C.

Compound `CCCC(O)CO` (configuration not stated) [1,2-pentanediol] returned a flash point of 105 °C. On to `CC(N)CN` (configuration not stated) [1,2-propanediamine], for which the flash point came to 33 °C. Compound `C1=CC=CC=CC=C1` [1,3,5,7-cyclooctatetraene] registered a flash point of 22 °C. In the case of `Clc1cccc(Cl)c1` [1,3-dichlorobenzene], the flash point stood at 63 °C.

Turning to `CC(C)c1cccc(C(C)C)c1` [1,3-diisopropylbenzene], the flash point is 76 °C. For `NCCCN` [1,3-propanediamine], the flash point was determined as 48 °C. As for `C1COCCO1` [1,4-dioxane], the flash point turned out to be 11 °C. On to `OCCCCCO` [1,5-pentanediol], for which the flash point stood at 129 °C. `SCCCCCS` [1,5-pentanedithiol] showed a flash point of 95 °C. Compound `C=CCCCCCC=C` [1,8-nonadiene] displayed a flash point of 26 °C. Regarding `CC(O)CN` (configuration not stated) [1-amino-2-propanol], the flash point came out at 67 °C.

In the case of `CCc1cccc(Br)c1` [1-bromo-3-ethylbenzene], the flash point is 71 °C. On to `CCCCCCCBr` [1-bromoheptane], for which the flash point stood at 61 °C.

Compound `CCCCCCCCBr` [1-bromooctane] gave a flash point of 78 °C. Regarding `CCCCCBr` [1-bromopentane], the flash point stood at 30 °C. As for `CCCCO` [1-butanol], the flash point came out at 34 °C. Regarding `CCCCCC#CCCCCl` [1-chloro-4-decyne], the flash point came out at 87 °C.

The compound `CCCCCCCCCCCl` [1-chlorodecane] showed a flash point of 83 °C. `CCCCCCCCCl` [1-chlorooctane] returned a flash point of 58 °C. The same measure, in the same setting: the value for `CCCCCCCCCCS` [1-decanethiol] was 99 °C; that for `C=CCCCCCCCC` [1-decene] was 38 °C; that for `CCC1(C)CCCC1` [1-ethyl-1-methylcyclopentane] was 6 °C. The compound `C=CCCCCC` [1-heptene] returned a flash point of -9 °C.

Compound `C#CCCCCC` [1-heptyne] showed a flash point of -2 °C. Same read-out and setting: the same measure for `CCCCCCO` [1-hexanol]: 59 °C; for `C=CCCCC` [1-hexene]: -26 °C; for `C#CCCCC` [1-hexyne]: -20 °C.

As to `CCCCI` [1-iodobutane], the flash point stood at 33 °C.

Consider `CCC[N+](=O)[O-]` [1-nitropropane], for which the flash point came to 34 °C. Take `CCCCCCCCCO` [1-nonanol]: the flash point worked out at 98 °C. The compound `C#CCCCCCC` [1-octyne] returned a flash point of 16 °C. Take `C=CCCCCCCCCCCCCC` [1-pentadecene]: the flash point turned out to be 113 °C. `CCCCCS` [1-pentanethiol] showed a flash point of 18 °C.

Turning to `CCCCCO` [1-pentanol], the flash point came to 49 °C. For `C=CCCC` [1-pentene], the flash point is -51 °C. Compound `C#CCCC` [1-pentyne] displayed a flash point of -34 °C. Same read-out and setting: the same measure for `CCCC(=O)c1ccccc1` [1-phenyl-1-butanone]: 88 °C; for `CCC(=O)CCc1ccccc1` [1-phenyl-3-pentanone]: 103 °C; for `C#CCCCCCCCCCCC` [1-tridecyne]: 93 °C. In turn, `CCCCCCCCCCCO` [1-undecanol] showed a flash point of 115 °C. In the case of `C#CCCCCCCCCC` [1-undecyne], the flash point worked out at 65 °C. `CCC(C)(C)C(C)(C)C` [2,2,3,3-tetramethylpentane] yielded a flash point of 16 °C. For `CCC(C)C(C)C(C)(C)C` (configuration not stated) [2,2,3,4-tetramethylhexane], the flash point worked out at 31 °C.

In the case of `CC(C)C(C)(C)C` [2,2,3-trimethylbutane], the flash point was -24 °C. Same read-out and setting: the same measure for `CC(CC(C)(C)C)CC(C)(C)CC(C)(C)C` (configuration not stated) [2,2,4,4,6,8,8-heptamethylnonane]: 95 °C; for `CC(C)(C)CC(C)(C)C` [2,2,4,4-tetramethylpentane]: 6 °C; for `CC(C)CCC(C)(C)C` [2,2,5-trimethylhexane]: 13 °C. In turn, `CC(C)(Cl)Cl` [2,2-dichloropropane] showed a flash point of -5 °C. `CCC(C)(C)C` [2,2-dimethylbutane] displayed a flash point of -29 °C. Take `CC1(C)CCCC1=O` [2,2-dimethylcyclopentanone]: the flash point is 33 °C. Still for that read-out and setting: the value for `CCCCCC(C)(C)C` [2,2-dimethylheptane] was 24 °C; that for `C=C(C)C(C)(C)C` [2,3,3-trimethyl-1-butene] was -17 °C. Same read-out and setting: the value for `CCCC(C)(C)C(C)C` [2,3,3-trimethylhexane] was 15 °C; that for `CC(C)C(C)C(C)C(C)C` (configuration not stated) [2,3,4,5-tetramethylhexane] was 31 °C. In turn, `CC(C)C(C)C(C)C` [2,3,4-trimethylpentane] registered a flash point of -0 °C. The same measure, in the same setting: the same measure for `CC(C)CC(C)C(C)C` (configuration not stated) [2,3,5-trimethylhexane]: 15 °C; for `CC(=O)C(C)=O` [2,3-butanedione]: 10 °C. Same read-out and setting: the same measure for `OCC(Cl)CCl` (configuration not stated) [2,3-dichloro-1-propanol]: 93 °C. The compound `CC1=CCCO1` [2,3-dihydro-5-methylfuran] showed a flash point of -12 °C. Consider `C1=COCC1` [2,3-dihydrofuran], for which the flash point was -24 °C. Turning to `C=C(C)C(C)CC` (configuration not stated) [2,3-dimethyl-1-pentene], the flash point was -17 °C. On the same count and under the same terms, the value for `Cc1cccc(N)c1C` [2,3-dimethylaniline] was 96 °C; that for `CCCC(C)C(C)C` (configuration not stated) [2,3-dimethylhexane] was 5 °C. Same read-out and setting: the value for `CCCCCC(C)C(C)C` (configuration not stated) [2,3-dimethyloctane] was 36 °C; that for `CCC(C)(C)CC(C)C` [2,4,4-trimethylhexane] was 15 °C. Regarding `CC(C)CC(C)CC(C)C` [2,4,6-trimethylheptane], the flash point worked out at 31 °C.

On to `Cc1cc(C)nc(C)c1` [2,4,6-trimethylpyridine], for which the flash point was 54 °C. In turn, `CCCC(C)CC(C)C` (configuration not stated) [2,4-dimethylheptane] yielded a flash point of 15 °C. With `Cc1ccc(O)c(C)c1` [2,4-dimethylphenol], the flash point is 94 °C. Turning to `Cc1ccnc(C)c1` [2,4-dimethylpyridine], the flash point came out at 47 °C. For `CC(=O)CC(C)=O` [2,4-pentanedione], the flash point came to 38 °C. In turn, `CCC(C)CCC(C)C` (configuration not stated) [2,5-dimethylheptane] displayed a flash point of 15 °C. Compound `CC(=O)CCC(C)=O` [2,5-hexanedione] showed a flash point of 78 °C.

`CC(C)CCCC(C)C` [2,6-dimethylheptane] displayed a flash point of 26 °C. `CCC(C)S` (configuration not stated) [2-butanethiol] registered a flash point of -23 °C. The compound `CCCCOCCO` [2-butoxyethanol] gave a flash point of 62 °C. Compound `CCCCOCCOC(C)=O` [2-butoxyethylacetate] yielded a flash point of 71 °C. Same read-out and setting: the same measure for `CC1=CC2C(CC1)C2(C)C` (configuration not stated) [2-carene]: 38 °C.

Take `CC(Cl)CO` (configuration not stated) [2-chloro-1-propanol]: the flash point was 51 °C. Consider `CCC(C)Cl` (configuration not stated) [2-chlorobutane], for which the flash point is -15 °C. With `OCCCl` [2-chloroethanol], the flash point was 55 °C. `O=C1C=CCCC1` [2-cyclohexen-1-one] came in with a flash point of 56 °C. In the case of `CCCCCCCCC(C)O` (configuration not stated) [2-decanol], the flash point is 85 °C. `CCCCCCCCCCC(C)=O` [2-dodecanone]: the flash point is 108 °C. Consider `CC#CCCCCCCCCC` [2-dodecyne], for which the flash point is 78 °C.

Compound `CCOCCOC(C)=O` [2-ethoxyethylacetate] returned a flash point of 51 °C. Regarding `CCc1cc(C)ccc1C` [2-ethyl-1,4-dimethylbenzene], the flash point is 56 °C. As to `C=C(CC)CC` [2-ethyl-1-butene], the flash point was -26 °C. Consider `CCCCC(CC)CN` (configuration not stated) [2-ethyl-1-hexanamine], for which the flash point was 50 °C. As to `CCCCCCCCCCCO` [undecan-1-ol], in data set [1], the flash point worked out at 93.00 °C. In the case of `S=C([S-])NCCNC(=S)[S-].[Zn+2]` [zinc;N-[2-(sulfidocarbothioylamino)ethyl]carbamodithioate], the flash point in data set [1] came to 90.00 °C. The compound `CCCCCCCCCCCCCCCCCC(=O)[O-].CCCCCCCCCCCCCCCCCC(=O)[O-].[Zn+2]` [zinc;octadecanoate] displayed a flash point in data set [1] of 277.00 °C.
